In PMC4823954, “From fighting depression to conquering tumors: a novel tricyclic thiazepine compound as a tubulin polymerization inhibitor” (Cell Death & Disease, 2016):

Tests used:
Test in all cases: KINOMEscan
Assay type in all cases: binding
Details in all cases: read-out: % Ctrl
ABL2 = biological target: T1, ABL2 (Homo sapiens, UniProt P42684)
T1 construct: purchased DiscoveRx KINOMEscan
Outline: (§1)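 Competition binding panel of 442 non-mutant kinases: test compound at 5 and 10 μM competed with an active-site-directed ligand for 1 h with shaking. Bound kinase was eluted with 0.5 μM ligand and quantified by qPCR; %Ctrl = (compound − positive control)/(DMSO − positive control) × 100, lower meaning tighter binding.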

AKT2 = biological target: T2, AKT2 (Homo sapiens, UniProt P31751)
T2 construct: purchased DiscoveRx KINOMEscan
Outline: as §1

CDK4-cyclinD3 = biological target: T3, CDK4-cyclinD3 (Homo sapiens, UniProt P11802)
T3 construct: purchased DiscoveRx KINOMEscan
Outline: as §1

CSNK1G1 = biological target: T4, CSNK1G1 (Homo sapiens, UniProt Q9HCP0)
T4 construct: purchased DiscoveRx KINOMEscan
Outline: as §1

DLK = biological target: T5, DLK (Homo sapiens, UniProt Q12852)
T5 construct: purchased DiscoveRx KINOMEscan
Outline: as §1

DMPK2 = biological target: T6, DMPK2 (Homo sapiens, UniProt Q6DT37)
T6 construct: purchased DiscoveRx KINOMEscan
Outline: as §1

DRAK1 = biological target: T7, DRAK1 (Homo sapiens, UniProt Q9UEE5)
T7 construct: purchased DiscoveRx KINOMEscan
Outline: as §1

EGFR(G719S) = biological target: T8, EGFR(G719S) (Homo sapiens, UniProt P00533, G719S)
T8 construct: purchased DiscoveRx KINOMEscan

EPHA5 = biological target: T9, EPHA5 (Homo sapiens, UniProt P54756)
T9 construct: purchased DiscoveRx KINOMEscan
Outline: as §1

GRK4 = biological target: T10, GRK4 (Homo sapiens, UniProt P32298)
T10 construct: purchased DiscoveRx KINOMEscan
Outline: as §1

HIPK4 = biological target: T11, HIPK4 (Homo sapiens, UniProt Q8NE63)
T11 construct: purchased DiscoveRx KINOMEscan
Outline: as §1

JNK3 = biological target: T12, JNK3 (Homo sapiens, UniProt P53779)
T12 construct: purchased DiscoveRx KINOMEscan
Outline: as §1

MARK2 = biological target: T13, MARK2 (Homo sapiens, UniProt Q7KZI7)
T13 construct: purchased DiscoveRx KINOMEscan
Outline: as §1

MERTK = biological target: T14, MERTK (Homo sapiens, UniProt Q12866)
T14 construct: purchased DiscoveRx KINOMEscan
Outline: as §1

MET = biological target: T15, MET (Homo sapiens, UniProt P08581)
T15 construct: purchased DiscoveRx KINOMEscan
Outline: as §1

MINK = biological target: T16, MINK (Homo sapiens, UniProt Q8N4C8)
T16 construct: purchased DiscoveRx KINOMEscan
Outline: as §1

MKK7 = biological target: T17, MKK7 (Homo sapiens, UniProt O14733)
T17 construct: purchased DiscoveRx KINOMEscan
Outline: as §1

MRCKB = biological target: T18, MRCKB (Homo sapiens, UniProt Q9Y5S2)
T18 construct: purchased DiscoveRx KINOMEscan
Outline: as §1

MYO3A = biological target: T19, MYO3A (Homo sapiens, UniProt Q8NEV4)
T19 construct: purchased DiscoveRx KINOMEscan
Outline: as §1

NDR1 = biological target: T20, NDR1 (Homo sapiens, UniProt Q15208)
T20 construct: purchased DiscoveRx KINOMEscan
Outline: as §1

NEK6 = biological target: T21, NEK6 (Homo sapiens, UniProt Q9HC98)
T21 construct: purchased DiscoveRx KINOMEscan
Outline: as §1

PAK6 = biological target: T22, PAK6 (Homo sapiens, UniProt Q9NQU5)
T22 construct: purchased DiscoveRx KINOMEscan
Outline: as §1

PDPK1 = biological target: T23, PDPK1 (Homo sapiens, UniProt O15530)
T23 construct: purchased DiscoveRx KINOMEscan
Outline: as §1

PKAC-alpha = biological target: T24, PKAC-alpha (Homo sapiens, UniProt P17612)
T24 construct: purchased DiscoveRx KINOMEscan
Outline: as §1

PRKG2 = biological target: T25, PRKG2 (Homo sapiens, UniProt Q13237)
T25 construct: purchased DiscoveRx KINOMEscan
Outline: as §1

PRKR = biological target: T26, PRKR (Homo sapiens, UniProt P19525)
T26 construct: purchased DiscoveRx KINOMEscan
Outline: as §1

PRKX = biological target: T27, PRKX (Homo sapiens, UniProt P51817)
T27 construct: purchased DiscoveRx KINOMEscan
Outline: as §1

PRP4 = biological target: T28, PRP4 (Homo sapiens, UniProt Q13523)
T28 construct: purchased DiscoveRx KINOMEscan
Outline: as §1

RIOK1 = biological target: T29, RIOK1 (Homo sapiens, UniProt Q9BRS2)
T29 construct: purchased DiscoveRx KINOMEscan
Outline: as §1

SRPK2 = biological target: T30, SRPK2 (Homo sapiens, UniProt P78362)
T30 construct: purchased DiscoveRx KINOMEscan
Outline: as §1

TAOK3 = biological target: T31, TAOK3 (Homo sapiens, UniProt Q9H2K8)
T31 construct: purchased DiscoveRx KINOMEscan
Outline: as §1

T8 sequence (P00533 25-1210 G719S): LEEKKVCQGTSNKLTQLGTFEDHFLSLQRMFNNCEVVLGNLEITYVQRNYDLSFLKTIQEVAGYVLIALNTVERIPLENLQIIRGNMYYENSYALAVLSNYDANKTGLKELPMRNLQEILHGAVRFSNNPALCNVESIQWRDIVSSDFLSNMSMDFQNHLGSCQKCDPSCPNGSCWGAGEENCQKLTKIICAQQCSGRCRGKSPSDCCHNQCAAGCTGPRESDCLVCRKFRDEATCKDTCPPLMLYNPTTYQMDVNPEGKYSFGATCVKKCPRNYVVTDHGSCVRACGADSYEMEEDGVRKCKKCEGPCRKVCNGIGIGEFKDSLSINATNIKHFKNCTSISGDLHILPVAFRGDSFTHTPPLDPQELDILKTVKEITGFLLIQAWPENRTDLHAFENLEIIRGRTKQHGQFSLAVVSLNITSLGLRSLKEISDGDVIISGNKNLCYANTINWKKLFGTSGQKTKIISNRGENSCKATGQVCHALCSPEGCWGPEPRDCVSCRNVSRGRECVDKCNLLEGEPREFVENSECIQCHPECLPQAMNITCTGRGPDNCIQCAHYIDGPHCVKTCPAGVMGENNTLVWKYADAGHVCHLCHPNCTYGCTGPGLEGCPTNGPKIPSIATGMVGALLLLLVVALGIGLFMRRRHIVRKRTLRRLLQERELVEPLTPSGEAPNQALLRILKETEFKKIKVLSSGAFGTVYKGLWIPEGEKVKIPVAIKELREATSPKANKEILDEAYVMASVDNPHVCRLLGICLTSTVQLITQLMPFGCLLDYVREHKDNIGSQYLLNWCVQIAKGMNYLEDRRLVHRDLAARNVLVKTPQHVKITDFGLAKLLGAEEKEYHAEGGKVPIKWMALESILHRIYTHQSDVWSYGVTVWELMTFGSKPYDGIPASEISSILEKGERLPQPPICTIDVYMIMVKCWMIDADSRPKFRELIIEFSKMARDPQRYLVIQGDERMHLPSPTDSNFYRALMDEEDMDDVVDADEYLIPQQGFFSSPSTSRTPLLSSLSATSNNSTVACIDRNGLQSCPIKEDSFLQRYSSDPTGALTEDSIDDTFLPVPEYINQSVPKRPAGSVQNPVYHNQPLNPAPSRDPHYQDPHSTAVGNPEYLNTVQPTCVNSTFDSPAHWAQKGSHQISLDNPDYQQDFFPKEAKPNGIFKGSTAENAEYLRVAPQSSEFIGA
T28 sequence (Q13523 whole entry): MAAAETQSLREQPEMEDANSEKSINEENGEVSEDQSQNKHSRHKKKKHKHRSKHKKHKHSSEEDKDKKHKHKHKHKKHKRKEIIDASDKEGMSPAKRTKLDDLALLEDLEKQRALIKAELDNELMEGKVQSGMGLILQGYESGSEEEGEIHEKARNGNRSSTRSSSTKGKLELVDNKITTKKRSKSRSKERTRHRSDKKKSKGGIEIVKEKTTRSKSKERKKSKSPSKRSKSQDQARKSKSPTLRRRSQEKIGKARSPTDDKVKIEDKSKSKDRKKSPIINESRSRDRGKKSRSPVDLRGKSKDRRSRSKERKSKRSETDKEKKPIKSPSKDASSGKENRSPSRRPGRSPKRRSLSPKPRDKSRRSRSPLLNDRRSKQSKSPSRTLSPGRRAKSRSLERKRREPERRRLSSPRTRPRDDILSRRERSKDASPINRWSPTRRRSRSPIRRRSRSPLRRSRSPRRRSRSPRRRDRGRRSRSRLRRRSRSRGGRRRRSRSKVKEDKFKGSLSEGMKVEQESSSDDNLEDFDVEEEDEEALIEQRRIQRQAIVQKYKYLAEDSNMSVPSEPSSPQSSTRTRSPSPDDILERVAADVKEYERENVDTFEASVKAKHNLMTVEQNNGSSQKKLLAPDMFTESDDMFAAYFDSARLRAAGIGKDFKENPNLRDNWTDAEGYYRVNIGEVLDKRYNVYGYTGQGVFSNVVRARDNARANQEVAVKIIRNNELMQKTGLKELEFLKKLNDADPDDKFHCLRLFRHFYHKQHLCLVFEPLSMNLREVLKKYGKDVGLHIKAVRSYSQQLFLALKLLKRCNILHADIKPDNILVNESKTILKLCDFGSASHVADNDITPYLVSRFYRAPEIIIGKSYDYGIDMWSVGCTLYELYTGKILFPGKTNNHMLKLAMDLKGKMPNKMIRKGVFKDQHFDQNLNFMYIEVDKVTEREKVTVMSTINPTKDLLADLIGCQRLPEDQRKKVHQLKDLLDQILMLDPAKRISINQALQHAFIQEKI
T7 sequence (Q9UEE5 whole entry): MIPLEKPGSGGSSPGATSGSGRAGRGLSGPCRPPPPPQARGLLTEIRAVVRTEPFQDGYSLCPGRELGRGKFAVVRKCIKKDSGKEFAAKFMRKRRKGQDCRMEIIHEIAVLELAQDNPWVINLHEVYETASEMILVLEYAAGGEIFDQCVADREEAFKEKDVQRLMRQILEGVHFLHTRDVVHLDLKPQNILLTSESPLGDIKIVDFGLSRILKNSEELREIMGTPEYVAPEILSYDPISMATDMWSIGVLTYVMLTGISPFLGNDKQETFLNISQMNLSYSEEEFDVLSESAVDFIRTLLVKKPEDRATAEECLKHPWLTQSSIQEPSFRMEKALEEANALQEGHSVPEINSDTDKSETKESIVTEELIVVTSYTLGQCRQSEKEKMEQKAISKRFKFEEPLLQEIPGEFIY
T3 sequence (P11802 whole entry): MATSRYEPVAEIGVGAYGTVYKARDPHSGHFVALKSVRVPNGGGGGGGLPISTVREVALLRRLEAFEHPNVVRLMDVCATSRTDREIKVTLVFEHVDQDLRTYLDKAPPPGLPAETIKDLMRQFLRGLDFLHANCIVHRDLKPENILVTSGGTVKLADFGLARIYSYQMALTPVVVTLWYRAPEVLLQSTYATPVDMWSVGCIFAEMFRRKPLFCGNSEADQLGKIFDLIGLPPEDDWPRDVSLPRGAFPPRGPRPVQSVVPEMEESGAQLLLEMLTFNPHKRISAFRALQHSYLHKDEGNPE
T3 sequence (P30281 whole entry partner): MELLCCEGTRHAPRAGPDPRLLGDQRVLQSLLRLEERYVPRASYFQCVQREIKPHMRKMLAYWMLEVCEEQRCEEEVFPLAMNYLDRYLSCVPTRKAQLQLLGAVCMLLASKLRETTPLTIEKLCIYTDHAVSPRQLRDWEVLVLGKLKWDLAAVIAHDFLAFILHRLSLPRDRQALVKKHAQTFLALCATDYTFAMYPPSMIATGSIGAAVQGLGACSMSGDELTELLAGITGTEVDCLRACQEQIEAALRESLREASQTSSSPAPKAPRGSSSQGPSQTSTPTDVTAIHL
T12 sequence (P53779 whole entry): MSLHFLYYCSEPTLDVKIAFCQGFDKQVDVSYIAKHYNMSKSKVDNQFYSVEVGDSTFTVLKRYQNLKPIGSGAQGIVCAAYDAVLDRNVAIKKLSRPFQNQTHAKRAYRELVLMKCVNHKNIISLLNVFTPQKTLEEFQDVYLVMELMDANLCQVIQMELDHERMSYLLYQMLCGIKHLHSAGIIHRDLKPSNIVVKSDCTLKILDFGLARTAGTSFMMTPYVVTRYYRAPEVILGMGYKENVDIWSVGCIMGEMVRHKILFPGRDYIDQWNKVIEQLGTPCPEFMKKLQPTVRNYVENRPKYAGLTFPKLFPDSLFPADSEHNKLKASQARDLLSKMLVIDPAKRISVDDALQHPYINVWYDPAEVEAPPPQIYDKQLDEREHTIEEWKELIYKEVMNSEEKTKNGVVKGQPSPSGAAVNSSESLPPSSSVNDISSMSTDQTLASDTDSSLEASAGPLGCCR
T15 sequence (P08581 25-1390): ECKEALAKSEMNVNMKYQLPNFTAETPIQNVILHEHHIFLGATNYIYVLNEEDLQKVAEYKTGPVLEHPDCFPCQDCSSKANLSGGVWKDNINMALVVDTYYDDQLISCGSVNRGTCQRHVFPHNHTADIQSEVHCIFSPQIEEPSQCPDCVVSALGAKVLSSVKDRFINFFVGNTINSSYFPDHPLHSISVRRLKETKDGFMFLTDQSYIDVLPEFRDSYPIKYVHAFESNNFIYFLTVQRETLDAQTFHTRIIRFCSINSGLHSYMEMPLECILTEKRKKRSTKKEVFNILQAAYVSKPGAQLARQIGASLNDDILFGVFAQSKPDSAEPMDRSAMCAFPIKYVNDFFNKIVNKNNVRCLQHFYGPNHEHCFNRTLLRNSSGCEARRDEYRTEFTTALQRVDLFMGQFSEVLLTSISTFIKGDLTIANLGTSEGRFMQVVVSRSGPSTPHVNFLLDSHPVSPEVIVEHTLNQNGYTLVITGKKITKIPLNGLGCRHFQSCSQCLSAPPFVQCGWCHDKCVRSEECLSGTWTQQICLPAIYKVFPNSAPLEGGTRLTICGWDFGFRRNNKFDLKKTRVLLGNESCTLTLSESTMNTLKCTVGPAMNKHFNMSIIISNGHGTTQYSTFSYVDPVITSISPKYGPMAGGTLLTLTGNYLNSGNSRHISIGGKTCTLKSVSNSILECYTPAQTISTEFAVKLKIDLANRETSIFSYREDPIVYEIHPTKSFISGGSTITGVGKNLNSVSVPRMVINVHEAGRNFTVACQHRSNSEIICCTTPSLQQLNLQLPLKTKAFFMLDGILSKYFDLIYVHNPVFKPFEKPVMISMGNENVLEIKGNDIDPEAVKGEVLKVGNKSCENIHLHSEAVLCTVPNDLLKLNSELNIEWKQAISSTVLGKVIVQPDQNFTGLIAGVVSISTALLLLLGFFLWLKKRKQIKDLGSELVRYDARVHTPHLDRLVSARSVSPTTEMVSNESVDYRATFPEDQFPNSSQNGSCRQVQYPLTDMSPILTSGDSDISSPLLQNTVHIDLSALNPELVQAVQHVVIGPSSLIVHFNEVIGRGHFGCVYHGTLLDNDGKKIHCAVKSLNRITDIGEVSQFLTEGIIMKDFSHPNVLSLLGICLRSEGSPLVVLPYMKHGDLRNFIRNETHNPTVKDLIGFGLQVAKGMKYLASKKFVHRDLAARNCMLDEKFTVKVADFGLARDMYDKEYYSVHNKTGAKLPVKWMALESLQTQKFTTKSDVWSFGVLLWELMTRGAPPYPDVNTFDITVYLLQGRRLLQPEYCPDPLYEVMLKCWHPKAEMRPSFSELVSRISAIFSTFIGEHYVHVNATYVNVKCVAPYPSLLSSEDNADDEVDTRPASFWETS

Cc1ccc(C2=Nc3cccnc3S(=O)(=O)c3ccccc32)cc1 [TBPT, 6-(p-tolyl)benzo[f] pyrido[2,3-b][1,4] thiazepine 11,11-dioxide]
remaining binding at 5 µM (ABL2; 5 μM): 80% | remaining binding at 10 µM (ABL2; 10 μM): 97% | remaining binding at 5 µM (AKT2; 5 μM): 76% | remaining binding at 10 µM (AKT2; 10 μM): 100% | remaining binding at 5 µM (CDK4-cyclinD3; 5 μM): 100% | remaining binding at 10 µM (CDK4-cyclinD3; 10 μM): 90% | remaining binding at 5 µM (CSNK1G1; 5 μM): 100% | remaining binding at 10 µM (CSNK1G1; 10 μM): 89% | remaining binding at 5 µM (DLK; 5 μM): 88% | remaining binding at 10 µM (DLK; 10 μM): 81% | remaining binding at 5 µM (DMPK2; 5 μM): 100% | remaining binding at 10 µM (DMPK2; 10 μM): 83% | remaining binding at 5 µM (DRAK1; 5 μM): 94% | remaining binding at 10 µM (DRAK1; 10 μM): 92% | remaining binding at 5 µM (EGFR(G719S); 5 μM): 83% | remaining binding at 10 µM (EGFR(G719S); 10 μM): 94% | remaining binding at 5 µM (EPHA5; 5 μM): 92% | remaining binding at 10 µM (EPHA5; 10 μM): 100% | remaining binding at 5 µM (GRK4; 5 μM): 100% | remaining binding at 10 µM (GRK4; 10 μM): 95% | remaining binding at 5 µM (HIPK4; 5 μM): 91% | remaining binding at 10 µM (HIPK4; 10 μM): 100% | remaining binding at 5 µM (JNK3; 5 μM): 84% | remaining binding at 10 µM (JNK3; 10 μM): 95% | remaining binding at 5 µM (MARK2; 5 μM): 86% | remaining binding at 10 µM (MARK2; 10 μM): 84% | remaining binding at 5 µM (MERTK; 5 μM): 100% | remaining binding at 10 µM (MERTK; 10 μM): 80% | remaining binding at 5 µM (MET; 5 μM): 100% | remaining binding at 10 µM (MET; 10 μM): 92% | remaining binding at 5 µM (MINK; 5 μM): 89% | remaining binding at 10 µM (MINK; 10 μM): 83% | remaining binding at 5 µM (MKK7; 5 μM): 100% | remaining binding at 10 µM (MKK7; 10 μM): 100% | remaining binding at 5 µM (MRCKB; 5 μM): 89% | remaining binding at 10 µM (MRCKB; 10 μM): 92% | remaining binding at 5 µM (MYO3A; 5 μM): 100% | remaining binding at 10 µM (MYO3A; 10 μM): 90% | remaining binding at 5 µM (NDR1; 5 μM): 100% | remaining binding at 10 µM (NDR1; 10 μM): 87% | remaining binding at 5 µM (NEK6; 5 μM): 96% | remaining binding at 10 µM (NEK6; 10 μM): 95% | remaining binding at 5 µM (PAK6; 5 μM): 100% | remaining binding at 10 µM (PAK6; 10 μM): 100% | remaining binding at 5 µM (PDPK1; 5 μM): 100% | remaining binding at 10 µM (PDPK1; 10 μM): 100% | remaining binding at 5 µM (PKAC-alpha; 5 μM): 93% | remaining binding at 10 µM (PKAC-alpha; 10 μM): 100% | remaining binding at 5 µM (PRKG2; 5 μM): 88% | remaining binding at 10 µM (PRKG2; 10 μM): 98% | remaining binding at 5 µM (PRKR; 5 μM): 97% | remaining binding at 10 µM (PRKR; 10 μM): 90% | remaining binding at 5 µM (PRKX; 5 μM): 92% | remaining binding at 10 µM (PRKX; 10 μM): 70% | remaining binding at 5 µM (PRP4; 5 μM): 99% | remaining binding at 10 µM (PRP4; 10 μM): 100% | remaining binding at 5 µM (RIOK1; 5 μM): 83% | remaining binding at 10 µM (RIOK1; 10 μM): 76% | remaining binding at 5 µM (SRPK2; 5 μM): 96% | remaining binding at 10 µM (SRPK2; 10 μM): 78% | remaining binding at 5 µM (TAOK3; 5 μM): 89% | remaining binding at 10 µM (TAOK3; 10 μM): 100%
